Legend:
[1] = target: BN/GRP receptor on U-87MG tumour membranes; assay: Displacement of 125I-[Tyr4]BN binding (radioreceptor assay) on U-87MG tumour membranes; parameters: species or system human
Experimental: (§1) Binding characteristics of BN receptors on membrane preparations from U-87MG tumours were determined by ligand competition assays using ^125I-labelled [Tyr^4]BN, as reported earlier ([Halmos and Schally, 1997]). […] IC50 value was calculated with a computerized curve fitting programme and is defined as the concentration of AN-215 causing a 50% inhibition of ^125I-[Tyr^4]BN binding.

[2] = test system: BN receptors on membrane preparations from U-87MG tumours; assay: 125I-[Tyr4]BN binding characteristics (Kd, Bmax) of BN receptors on U-87MG tumour membranes; parameters: species or system human; details: AN-215-treated vs control
Experimental: as §1

Gln-Trp-Ala-Val-Gly-His-Leu-ψ(CH2-NH)-Leu-NH2 [AN-215]
IC50 ([1]; U-87MG tumour membranes, AN-215 10^-6–10^-12 M, mean±s.e., read-out: IC50, inhibition of specific 125I-[Tyr4]BN binding): 4 ± 0.1 nM | Binding affinity to BN/GRP receptor protein ([1]; U-87MG tumours): high binding affinity | Effect of treatment on binding characteristics of receptors for BN/GRP [2]: did not affect the binding characteristics
